Data: ChEMBL document CHEMBL3885861, “Open TG-GATES”

Species on record: Rattus norvegicus
Assay: Open TG-GATES - Regimen: Daily Repeat
Format: toxicity, organism-based, Sprague-Dawley
Set-up: regimen Daily Repeat, gender Male, age 6 weeks
Settings: in vivo, po, 0 mg/kg, route gavage, dose level Control; for APTT / Bas / Eos / Fbg / Hb / Ht / Lym / MCH / MCHC / MCV / Mono / Neu / PT / Plat / RBC / Ret / WBC: tissue Blood
[1] = 72 h, tissue Kidney, time 3 day
[2] = 72 h, tissue Plasma, time 3 day

COC1=CC(=O)C[C@@H](C)[C@]12Oc1c(Cl)c(OC)cc(OC)c1C2=O [GRISEOFULVIN] gave a TERMINAL_BW (72 h, time 3 day) of 226.2 g, an APTT (72 h, time 3 day) of 20.3 s and a Bas (72 h, time 3 day) of 0%. It also gave an Eos (72 h, time 3 day) of 1%, a Fbg (72 h, time 3 day) of 209.6 mg/dL and a Hb (72 h, time 3 day) of 12.8 g/dL. The Ht (72 h, time 3 day) was 38%, the Lym (72 h, time 3 day) was 81.8% and the MCH (72 h, time 3 day) was 21.4 pg. For the same compound, the MCHC (72 h, time 3 day) was 33.6%, the MCV (72 h, time 3 day) was 63.5 fL and the Mono (72 h, time 3 day) was 2.4%. It also gave a Neu (72 h, time 3 day) of 15%, a PT (72 h, time 3 day) of 13.1 s and a Plat (72 h, time 3 day) of 133.8 x10_4/uL. The RBC (72 h, time 3 day) was 598.2 x10_4/ul, the Ret (72 h, time 3 day) was 6.7% and the WBC (72 h, time 3 day) was 92 x10_2/uL. The KIDNEY_L [1] was 0.9 g, the KIDNEY_R [1] was 0.9 g and the KIDNEY_TOTAL [1] was 1.9 g. The LIVER (72 h, tissue Liver, time 3 day) was 10.4 g, the A/G [2] was 1.6 and the ALP [2] was 917.8 IU/L. The ALT [2] was 35 IU/L, the AST [2] was 66.2 IU/L and the BUN [2] was 14.6 mg/dL. The CRE [2] was 0.4 mg/dL, the Ca [2] was 10.6 mg/dL and the Cl [2] was 104.4 meq/L. For the same compound, the DBIL [2] was 0.1 mg/dL, the GLC [2] was 210.8 mg/dL and the IP [2] was 7.7 mg/dL. For the same compound, the K [2] was 4 meq/L, the LDH [2] was 154 IU/L and the Na [2] was 141 meq/L. It also gave a PL [2] of 130.6 mg/dL, an RALB [2] of 3.3 g/dL and a TBIL [2] of 0.2 mg/dL. The TC [2] was 69 mg/dL, the TG [2] was 79 mg/dL and the TP [2] was 5.3 g/dL. It also gave a gamma-GTP [2] of 1.2 IU/L, a TERMINAL_BW ([…], time 7 day) of 261.4 g and a TERMINAL_BW ([…], time 14 day) of 310.7 g. The TERMINAL_BW ([…], time 28 day) was 391 g, the APTT ([…], time 7 day) was 18.8 s and the Bas ([…], time 7 day) was 0%. The Eos ([…], time 7 day) was 0.8%, the Fbg ([…], time 7 day) was 236 mg/dL and the Hb ([…], time 7 day) was 14.1 g/dL. It also gave a Ht ([…], time 7 day) of 42%, a Lym ([…], time 7 day) of 78% and an MCH ([…], time 7 day) of 21.7 pg. For the same compound, the MCHC ([…], time 7 day) was 33.6%, the MCV ([…], time 7 day) was 64.8 fL and the Mono ([…], time 7 day) was 3%. For the same compound, the Neu ([…], time 7 day) was 17.4%, the PT ([…], time 7 day) was 12.3 s and the Plat ([…], time 7 day) was 122.6 x10_4/uL. It also gave an RBC ([…], time 7 day) of 647.4 x10_4/ul, a Ret ([…], time 7 day) of 5.2% and a WBC ([…], time 7 day) of 117.8 x10_2/uL. For the same compound, the APTT ([…], time 14 day) was 19.7 s, the Bas ([…], time 14 day) was 0% and the Eos ([…], time 14 day) was 1%. For the same compound, the Fbg ([…], time 14 day) was 226.2 mg/dL, the Hb ([…], time 14 day) was 14.1 g/dL and the Ht ([…], time 14 day) was 42.2%. The Lym ([…], time 14 day) was 81.2%, the MCH ([…], time 14 day) was 20.8 pg and the MCHC ([…], time 14 day) was 33.4%. It also gave an MCV ([…], time 14 day) of 62.2 fL, a Mono ([…], time 14 day) of 3% and a Neu ([…], time 14 day) of 14.4%. For the same compound, the PT ([…], time 14 day) was 12.4 s, the Plat ([…], time 14 day) was 117 x10_4/uL and the RBC ([…], time 14 day) was 678.6 x10_4/ul. The Ret ([…], time 14 day) was 3%, the WBC ([…], time 14 day) was 116.8 x10_2/uL and the APTT ([…], time 28 day) was 20.6 s. The Bas ([…], time 28 day) was 0%, the Eos ([…], time 28 day) was 0.8% and the Fbg ([…], time 28 day) was 220 mg/dL. The Hb ([…], time 28 day) was 15.2 g/dL and the Ht ([…], time 28 day) was 44.8%.
